Experimental data reported in patent publication US20220193072A1, “METHODS OF TREATING BREAST CANCER WITH TETRAHYDRONAPHTHALENE DERIVATIVES AS ESTROGEN RECEPTOR DEGRADER” (Arvinas Operations, Inc., priority 2020, published 2022).

Columns and labels:
[1] = tested on: MCF7 cells; assay: Live-cell imaging growth studies and EC50 for growth inhibition, MCF7; format: cell-based; conditions: Homo sapiens, read-out: Approximate Half-maximal Effective Concentration (EC50) for growth inhibition
Procedure: (§1) MCF7, T47D, T47D ESR1 Y537S or T47D ESR1 D538G cells were seeded at 2×10^5 density per well in 6-well tissue culture-treated plates in DMEM/F12/10% FBS (2 mL total volume). […] The plate was then placed in the Incucyte® S3 Live-Cell Analysis System and images were acquired every 4 hours for a total of 5 days (120 hours). Data were analyzed using the Incucyte® Software v2020C which quantified cell surface area coverage as confluence values. Relative growth was calculated for all timepoints for all growth conditions relative to the confluence value observed for the control at 120 hours. Graphing and statistical analyses were performed using Graphpad Prism (GraphPad Software).

[2] = tested on: T47D cells; assay: Live-cell imaging growth studies and EC50 for growth inhibition, T47D; format: cell-based; conditions: Homo sapiens, read-out: Approximate Half-maximal Effective Concentration (EC50) for growth inhibition
Procedure: as §1

[3] = tested on: MCF7 xenograft; assay: MCF7 orthotopic xenograft, combination with PI3K inhibitor alpelisib; format: in vivo, NOD/SCID mice
Procedure: NOD/SCID female mice (Charles River, 6-7 weeks old upon arrival) were implanted with 17b-estradiol 0.72 mg 90-day pellets. The next day, each mouse was implanted with 5×10^6 MCF7 cells/[…] in the axial mammary fat pad. Compound administration was initiated once the tumors reached 175-200 mm^3. Diet was supplemented with peanut butter to help maintain body weights. Dosing holidays occurred on days 6, 7, 8 and 9 due to body weight loss in some animals in study arms 3 and 4. […] (FIG. 31 and Table 15).
Dosing holidays occurred on days 6, 7, 8 and 9. Error bars represent standard deviation.
The ratio of Tween 80 to PEG-400 is 0.02 g Tween 80 to 1 ml PEG-400. PEG-400 is added to a pre-aliquoted volume of Tween 80. • For alpelisib: 1% carboxymethylcellulose (CMC), 0.5% Tween 80/DI water (‘CMC/Tween’) Sampling: tumors were measured twice weekly. Terminal sacrifice was ˜18 hr after last dose. Tumor volume calculation: Tumor Volume=(width×width×length)/2, where all measurements are in mm and the tumor volume is in mm^3. Tumor Growth Inhibition (TGI) calculation: TGI (%)

[4] = tested on: MCF7 cells; assay: Luminescence-based MCF7 cell proliferation assay, dose-response matrix; conditions: 5 days (120 hours)
Procedure: MCF7 cells were seeded at a density of 2×10^4 cells in 200 μL of media per well in 2 technical replicate, 96-well black, clear-bottom plates and incubated overnight at 37° C. in a 5% CO2 incubator. […] DMSO was used as the vehicle control. The plates were then incubated for 5 days at 37° C. in a 5% CO2 incubator.
The plates were equilibrated to room temperature for approximately 30 minutes. 50 μL of Cell-Titer Glo (Promega) was added to all wells of the plates, covered with aluminum foil and shaken gently by hand for less than 1 minute. The plates were then incubated for 10 minutes at room temperature. Luminescence was recorded using Envision Multi Label Reader. To assess cell viability, luminescence values for drug-treated wells were normalized to average luminescence of vehicle (DMSO) wells to obtain percent viability relative to control cells. The data were analyzed with the Combenefit software.

[5] = tested on: T47D ESR1 Y537S cells; assay: Live-cell imaging growth studies and EC50 for growth inhibition, T47D ESR1 Y537S; format: cell-based; conditions: Homo sapiens, read-out: Approximate Half-maximal Effective Concentration (EC50) for growth inhibition
Procedure: as §1

[6] = tested on: MCF7 xenograft; assay: MCF7 orthotopic xenograft, combination with mTOR inhibitor everolimus; format: in vivo, NOD/SCID mice
Procedure: NOD/SCID female mice (Charles River, 6-7 weeks old upon arrival) were implanted with 17b-estradiol 0.72 mg 90-day pellets. The next day, each mouse was implanted with 5×10^6 MCF7 cells/[…] per in the axial mammary fat pad. Compound administration was initiated once the tumors reached 175-200 mm^3. Diet was supplemented with peanut butter to help maintain body weights. […] (FIG. 28 and Table 13).
Error bars represent standard deviation.
The ratio of Tween 80 to PEG-400 is 0.02 g Tween 80 to 1 ml PEG-400. PEG-400 is added to a pre-aliquoted volume of Tween 80. • For everolimus: 10% DMSO, 90% (2% Tween 80, PEG 400) (DMSO/PEG/Tween) Sampling: tumors were measured twice weekly. Terminal sacrifice was ˜18 hr after last dose. Tumor volume calculation: Tumor Volume=(width×width×length)/2, where all measurements are in mm and the tumor volume is in mm^3. Tumor Growth Inhibition (TGI) calculation: TGI (%)

[7] = tested on: T47D ESR1 D538G cells; assay: Live-cell imaging growth studies and EC50 for growth inhibition, T47D ESR1 D538G; format: cell-based; conditions: Homo sapiens; T47D ESR1 D537G (so in the source); read-out: Approximate Half-maximal Effective Concentration (EC50) for growth inhibition
Procedure: as §1

[8] = tested on: tamoxifen-resistant MCF7 xenografts; assay: Tamoxifen-resistant MCF7 orthotopic xenograft tumor growth inhibition; format: in vivo, Nu/Nu mice
Procedure: Species: Ovariectomized Nu/Nu female mice. Animal handling: Axial mammary fat pad implantation of tamoxifen-resistant tumor fragment (from E45 passage. SC per mouse. Tamoxifen pellet (5 mg, 60-day release) was implanted under the same anesthesia as tumor fragment (pellet—dorsal; tumor—ventral).
Dosing: Oral (gavage), once a day for 28 days (QD×28)
(§2) Sampling: Tumors were measured twice weekly. Terminal sacrifice was ˜18 hr after last dose; tumors were harvested, divided, and flash frozen. ERα levels were determined by immunoblotting (see Appendix 1 for details).

[9] = target: T1, ERα (Homo sapiens, UniProt P03372); assay: ERα levels in tamoxifen-resistant MCF7 xenografts (immunoblot); format: in vivo, Nu/Nu mice; conditions: tamoxifen-resistant MCF7, palbociclib alone 60 mg/kg
T1 construct: robustly degrades ER in ER-positive breast cancer cell lines; endogenous in cells; host or cells: MCF7, T47D (cell culture); MCF7 and tamoxifen-resistant MCF7 xenograft tumours in mice
T1 sequence (P03372 1-595): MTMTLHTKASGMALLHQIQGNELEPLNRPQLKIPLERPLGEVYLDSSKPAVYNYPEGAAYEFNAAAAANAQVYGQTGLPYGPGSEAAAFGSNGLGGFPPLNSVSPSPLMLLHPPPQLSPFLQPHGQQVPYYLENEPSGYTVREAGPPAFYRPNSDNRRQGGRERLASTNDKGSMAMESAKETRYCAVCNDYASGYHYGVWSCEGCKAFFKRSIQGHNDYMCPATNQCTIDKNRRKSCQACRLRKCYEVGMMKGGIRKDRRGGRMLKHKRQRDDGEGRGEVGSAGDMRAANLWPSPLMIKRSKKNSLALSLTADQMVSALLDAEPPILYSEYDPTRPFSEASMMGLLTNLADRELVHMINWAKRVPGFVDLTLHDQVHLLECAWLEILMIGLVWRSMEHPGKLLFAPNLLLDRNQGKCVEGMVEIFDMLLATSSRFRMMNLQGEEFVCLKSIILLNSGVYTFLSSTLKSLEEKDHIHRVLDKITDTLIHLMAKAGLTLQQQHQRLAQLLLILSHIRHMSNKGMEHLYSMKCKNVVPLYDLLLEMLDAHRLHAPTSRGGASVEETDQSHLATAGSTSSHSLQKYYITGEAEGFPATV
Procedure: At study termination, the tumors were removed from the mice, and ERα levels were determined by immunoblotting the tumor homogenates. […] ERα levels from the various compound arms were compared to vehicle-treated animals by analyzing the tumor lysates on separate immunoblots (graphs in FIG. 10, FIG. 11, and FIG. 12 depict data from individual immunoblots) and the average ERα levels with standard deviation is shown.
as §2
Flash frozen tumors were removed from −80° C. storage and placed on dry ice. RIPA lysis buffer and Halt protease inhibitors were used at 400 μl per tumor sample. A steel ball (5 mm) was placed in each sample for tissue disruption. Samples were lysed with TissueLyzer at 24 Hz for 4 minutes. The homogenization was stopped half way through the process and the block flipped over for the duration of the process. […] Lysates were then measured for total protein concentration by BCA (per manufacturer's protocol). […]
Protein was transferred from gels to nitrocellulose with Bio-Rad Turbo on default setting. […] The blots were cut so that beta-actin and ERα can be detected from the same lane/sample. […]

[10] = alpelisib 25 mg/kg oral QD x 19
[11] = everolimus 2.5 mg/kg oral QD x 26
[12] = palbociclib 60 mg/kg oral QD x 28

CCN1CCN(Cc2ccc(Nc3ncc(F)c(-c4cc(F)c5nc(C)n(C(C)C)c5c4)n3)nc2)CC1 [Abemaciclib]
EC50 [1]: 40 nM

Cc1nc(NC(=O)N2CCC[C@H]2C(N)=O)sc1-c1ccnc(C(C)(C)C(F)(F)F)c1 [Alpelisib, reference compound]
EC50 [2]: 100 nM
EC50 [1]: 100 nM
Day 19 Tumor Volume (mean ± SD) [3, 10]: 281 ± 37 mm^3
TGI (% vehicle) [3, 10]: 74 % vehicle
tumor growth inhibition (TGI) ([3]; alpelisib 25 mg/kg oral once daily, 19 days, dosing holidays days 6-9): 74%
MCF7 cell proliferation, single agent [4]: dose-dependent decrease

CO[C@H]1C[C@@H]2CC[C@@H](C)[C@@](O)(O2)C(=O)C(=O)N2CCCC[C@H]2C(=O)O[C@H]([C@H](C)C[C@@H]2CC[C@@H](OCCO)[C@H](OC)C2)CC(=O)[C@H](C)/C=C(\C)[C@@H](O)[C@@H](OC)C(=O)[C@H](C)C[C@H](C)/C=C/C=C/C=C/1C [Everolimus, reference compound]
EC50 [2]: 100 nM
EC50 [1]: 10 nM
EC50 [5]: 10 nM
Day 26 Tumor Volume (mean ± SD) [6, 11]: 252 ± 50 mm^3
TGI (% vehicle) [6, 11]: 89 % vehicle
tumor growth inhibition (TGI) ([6]; everolimus 2.5 mg/kg oral once daily, 26 days): 89%
EC50 [7]: 10 nM
MCF7 cell proliferation, single agent [4]: dose-dependent decrease

C[C@H](Nc1ccc2c(c1)OCCn1cc(N3C(=O)OC[C@H]3C(F)F)nc1-2)C(N)=O [GDC-0077]
EC50 [2]: 30 nM
EC50 [1]: 40 nM
MCF7 cell proliferation, single agent [4]: dose-dependent decrease

CC(=O)c1c(C)c2cnc(Nc3ccc(N4CCNCC4)cn3)nc2n(C2CCCC2)c1=O [Palbociclib, 6-acetyl-8-cyclopentyl-5-methyl-2-{[5-(piperazin-1-yl)pyridin-2-yl]amino}pyrido[2,3-d]pyrimidin-7(8H)-one, reference compound]
Day 28 Tumor volume (mean ± SD) [8, 12]: 222 ± 139 mm^3
TGI (% vehicle) [8, 12]: 91 % vehicle
tumor growth inhibition (TGI) ([8]; tamoxifen-resistant MCF7, palbociclib 60 mg/kg/day oral, 28 days): 91%
effect on tumor ERα levels [9]: did not reduce

CC1(C)CCC(CN2CCN(c3ccc(C(=O)NS(=O)(=O)c4ccc(NCC5CCOCC5)c([N+](=O)[O-])c4)c(Oc4cnc5[nH]ccc5c4)c3)CC2)=C(c2ccc(Cl)cc2)C1 [Venetoclax]
EC50 [1]: 10000 nM
